Series [1] has as its target T1, HSV-2 (333) dThd kinase in infected HeLa BU cells (Human herpesvirus 2, UniProt P04407).
T1 construct: kinases were extracted from dThd kinase-deficient HeLa BU cells infected with HSV-1 (strain KOS) and HSV-2(strain 333); endogenous in cells; host or cells: HeLa BU cells (dThd kinase deficient) infected with HSV-2 (strain 333)
In words: Intracellular dThd kinase activity ([14C]dThd phosphorylation). Type of series: cell-based, HSV-2 (strain 333). The protocol: (§1) Intracellular dThd kinase activity. HeLa S3 or HeLa BU cells (1.5×10^6 /ml) were mock infected or infected with HSV-1 or HSV-2at 3 PFU/cell and incubated at 37° C. for a 1 h adsorption period. The medium was then removed, and the cells were washed with growth medium and resuspended at a cell density of 5×10^5 cells/ml in RPMI 1640 medium supplemented with kanamycin (100 μg/ml) and 5% dialyzed fetal bovine serum. At 9 h post-HSV infection, [14C]dThd (0.16 μCi/ml; 1 μM dThd) and different amounts of 5'-Et-dThd were added to the medium depending on experimental conditions. At the end of the labeling period (1 h), the cells were pelleted by centrifugation, washed with phosphate-buffered-saline (PBS) and resuspended in a small volume of PBS. Aliquots were then pipetted directly onto DE81 discs which were immediately washed in 100% EtOH. The DE81 discs were washed two additional times in 100% EtOH, and then radioactivity associated with the discs was measured by scintillation counting in 5 ml of aqueous counting fluid. In this manner, total intracellular dThd kinase activity was determined from the sum of radioactive acid soluble dThd nucleotides plus the acid insoluble dTMP associated with DNA, both precipitated directly on the DE81 discs.

In series [2] the test system is HSV-2-infected HeLa S3 cells. As to the kind of experiment: Intracellular dThd phosphorylation. In kind it is cell-based. To be noted: 25 μM, 9 h post infection, 1 h labeling. How it is done: as §1
In series [3] the test system is mock infected HeLa S3 cells. In words: Intracellular dThd phosphorylation. In kind it is cell-based. To be noted: increasing amounts of 5'-Et-dThd. The protocol:
as §1

Series [4] concerns HSV-1-infected HeLa S3 cells. In words: Intracellular dThd phosphorylation. Type of series: cell-based. The following applies: 25 μM, 9 h post infection, 1 h labeling. The protocol: as §1
The target of a further series is HSV-1 SC16 dThd kinase (Human herpesvirus 1, UniProt P06479). In words: dThd kinase assay in vitro, enzyme extracts. The following applies: enzyme extracts of infected HeLa BU cells, 100 μM dThd. In kind it is biochemical, HSV-1 (strain SC16). The protocol:
(§2) Virus stocks. The viruses used were HSV-1 (strains KOS, SC16, B3 and Tr7) and HSV-2(strain 333). dThd kinase mutants of HSV (SC16), B3 and Tr7, were isolated in the presence of (E)-5-(2-bromovinyl)-2'-deoxyuridine (BVDU) at 10 μg/ml and ACV at 1 μg/ml, respectively (Darby, G., Field, H.J. & Salisbury, S. A. (1982) Nature (London) 289:81-83; Field, H.J & Neden J. (1982) Antiviral Res. 2:243254).
(§3) Enzyme purification, enzyme assays, IC50 and Ki determinations. The cellular cytosolic dThd kinase used to determine the Ki values was isolated from KB6B cells. The HSV-1 and HSV-2dThd kinases were extracted from dThd kinase-deficient HeLa BU cells infected with HSV-1 (strain KOS) and HSV-2(strain 333), respectively. All of the dThd kinases were purified using affinity column chromatography procedures described by Lee, L. S. and Cheng, Y.-C. (J. Biol. Chem. 251:2600-2604 (1976)). The dThd kinase assay used was the same as that described by Cheng, Y.-C. & Ostrander, M. (J. Biol. Chem. 251:2605-2610 (1976)). Incubations were conducted at 37° C. for 60 min and the Ki and 50% […] concentration (IC50) values were determined as described by Cheng, Y.-C. and Prusoff, W. H. (Biochem. Pharmacol. 22:3099-3108 (1976)).

The target in the next series is T2, HSV-2 (333) dThd kinase (Human herpesvirus 2, UniProt P04407).
T2 construct: kinases were extracted from dThd kinase-deficient HeLa BU cells infected with HSV-1 (strain KOS) and HSV-2(strain 333); endogenous in cells; host or cells: HeLa BU cells (dThd kinase deficient) infected with HSV-2 (strain 333)
T2 sequence (P04407 whole entry): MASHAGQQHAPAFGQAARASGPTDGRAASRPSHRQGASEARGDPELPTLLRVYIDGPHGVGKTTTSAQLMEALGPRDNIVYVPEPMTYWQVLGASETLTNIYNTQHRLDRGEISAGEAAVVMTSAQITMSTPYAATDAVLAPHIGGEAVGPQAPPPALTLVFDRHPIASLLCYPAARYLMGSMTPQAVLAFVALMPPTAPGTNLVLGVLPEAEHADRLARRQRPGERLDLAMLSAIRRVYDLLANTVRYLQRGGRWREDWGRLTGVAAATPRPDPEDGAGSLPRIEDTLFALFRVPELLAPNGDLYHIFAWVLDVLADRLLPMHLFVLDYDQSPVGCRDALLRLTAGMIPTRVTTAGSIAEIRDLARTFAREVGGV
In words: dThd kinase assay in vitro. Type of series: biochemical, HSV-2 (strain 333).
Text: as §3

Series [5] has as its system mammalian host DNA synthesis. As to the kind of experiment: Host DNA synthesis by 32PO4 incorporation. Type of series: cell-based. To be noted: 100 μM.
In series [6] the target is dThd kinase from HSV-1 (KOS)-infected HeLa BU cells (Human alphaherpesvirus 1 strain KOS, UniProt P17402). As to the kind of experiment: Phosphate transfer assay (substrate test). In kind it is biochemical, HSV-1 (strain KOS). The following applies: 2 mM ATP.
Chain of dThd kinase from HSV-1 (KOS)-infected HeLa BU cells (P17402 whole entry, looked up): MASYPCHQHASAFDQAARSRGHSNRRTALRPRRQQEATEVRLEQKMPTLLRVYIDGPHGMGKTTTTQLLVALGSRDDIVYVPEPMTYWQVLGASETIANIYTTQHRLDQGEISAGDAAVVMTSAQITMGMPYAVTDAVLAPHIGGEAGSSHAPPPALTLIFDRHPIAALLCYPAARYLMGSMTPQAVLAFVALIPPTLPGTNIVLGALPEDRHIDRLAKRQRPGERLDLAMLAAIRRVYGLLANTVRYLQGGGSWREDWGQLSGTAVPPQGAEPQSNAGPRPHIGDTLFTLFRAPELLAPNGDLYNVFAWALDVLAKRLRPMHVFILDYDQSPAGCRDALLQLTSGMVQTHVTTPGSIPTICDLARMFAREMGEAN
The target in the next series is T3, host dTMP kinase (Homo sapiens, UniProt P23919).
T3 construct: endogenous in cells; host or cells: HSV-2 (333)-infected HeLa BU cells, extract
T3 sequence (P23919 whole entry): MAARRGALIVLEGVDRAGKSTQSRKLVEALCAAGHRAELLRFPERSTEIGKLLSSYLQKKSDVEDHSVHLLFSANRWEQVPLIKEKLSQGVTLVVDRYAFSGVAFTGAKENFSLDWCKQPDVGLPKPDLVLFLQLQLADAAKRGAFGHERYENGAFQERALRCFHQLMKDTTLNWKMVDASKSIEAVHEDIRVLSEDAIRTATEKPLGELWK
As to the kind of experiment: dTMP (thymidylate) kinase assay, crude extracts of HSV-2 (333)-infected HeLa BU cells. In kind it is biochemical. The following applies: 25 μM dTMP substrate, read-out: IC50 of dTMP kinase (reflects host dTMP kinase activity). How it is done: The thymidylate kinase and synthase assays were performed according to known procedures (see, Cheng, Y.-C. & Prusoff, W. H. (1974) Anal. Biochem. 60:545-550; Roberts, D. (1966) Biochemistry 5:3546-3548; Dolnick, B. J. & Cheng, Y. C. (1977) J. Biol. Chem. 252:7697-7703). dThd phosphorylase activity was determined by monitoring conversion of [^14 C]dThd to [14 C] thymine using high performance liquid chromatography (HPLC). Briefly, after a 30 min incubation of enzyme extract with radiolabeled dThd at 37° C., the reaction was stopped by addition of 25% trichloroacetic acid. After neutralization and centrifugation, the supernatants were loaded on to an Alltech Lichrosorb RP-18 column, and the column was eluted at a rate of 1 ml/min with 5 mM KH2 PO4 (pH 3.5)--10% methanol. Fractions of 1 ml were collected and radioactivity associated with dThd and thymine (as previously determined by retention times of authentic markers measured by their absorbance at 265 nm) was measured by scintillation counting. For evaluation of whether 5'-Et-dThd could serve substrate for dThd phosphorylase, reactions were carried out as described as above, except that 5'-Et-dThd was used instead of [^14 C]dThd; metabolites were then analyzed by HPLC as described above.

Series [7] concerns the target HSV-1 B3 dThd kinase (BVDU resistant variant) (Human alphaherpesvirus 1 strain SC16, UniProt P06479). As to the kind of experiment: dThd kinase assay in vitro, enzyme extracts. To be noted: enzyme extracts of infected HeLa BU cells, 100 μM dThd. In kind it is biochemical, HSV-1 (strain B3). The protocol: as §2, §3

pIC50, pKi: −log10 of the molar value. “And” between values parts separate entries of the source, which are not always exact repeats. Identical values can stand only once. “Also recorded” adds a separate entry of the source.

T1 sequence (P04407 whole entry): as the sequence (P04407 whole entry) above
Chain of HSV-1 B3 dThd kinase (BVDU resistant variant) (P06479 whole entry, looked up, change not shown): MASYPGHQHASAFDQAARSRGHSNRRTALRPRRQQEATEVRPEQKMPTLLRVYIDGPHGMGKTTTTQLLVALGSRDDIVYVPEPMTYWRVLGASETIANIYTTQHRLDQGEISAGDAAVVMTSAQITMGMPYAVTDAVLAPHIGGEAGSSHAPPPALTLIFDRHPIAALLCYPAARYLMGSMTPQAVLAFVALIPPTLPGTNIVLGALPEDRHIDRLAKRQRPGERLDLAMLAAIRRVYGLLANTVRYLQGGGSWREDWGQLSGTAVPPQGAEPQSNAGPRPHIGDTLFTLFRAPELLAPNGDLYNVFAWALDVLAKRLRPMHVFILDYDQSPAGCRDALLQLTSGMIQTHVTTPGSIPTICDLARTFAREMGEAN
Chain of HSV-1 SC16 dThd kinase (P06479 whole entry, looked up): as the sequence (P06479 whole entry, looked up, change not shown) above

With 5'-ethynylthymidine [5'-Et-dThd], the “dThd phosphorylating activity, % of untreated control” value in series [1] (25 μM, HSV-2-infected HeLa BU, 9 h post infection, 1 h labeling) is given as 80%; in series [2], 88%; in series [4] it was 25%. In addition, the “inhibition of dThd kinase-mediated [14C]dThd phosphorylation” value in [1] (100 μM, HSV-2-infected HeLa BU cells, 9 h post infection) is reported as 50%. The pIC50 is 4.00 in [1] (HSV-2 333, intracellular [14C]dThd phosphorylation, HeLa BU cells); 5.30 on HSV-1 SC16 dThd kinase; 4.34 against HSV-2 (333) dThd kinase (HSV-2 333, enzyme extracts of infected HeLa BU cells, 100 μM dThd); 4.22 on host dTMP kinase; > 5.00 and 5.15 in series [7]. Also, in series [3], the “accumulation of intracellular phosphorylated [14C]-dThd metabolites” value is reported as “increased slightly”. Moreover, the “inhibition of dThd kinase activity” value against HSV-2 (333) dThd kinase (10 μM 5'-Et-dThd, purified enzyme, 100 μM [14C]dThd) is 25%. In addition, the negative-log Ki (pKi) at HSV-2 (333) dThd kinase (HSV-2 333, affinity column-purified dThd kinase, ± standard deviation) was 6.42. Further, the “type of inhibition (kinetic studies)” value at HSV-2 (333) dThd kinase (with respect to dThd) was “competitive inhibitor”. In addition, in series [5], the “effect on mammalian host DNA synthesis” value was “no effect”. In addition, in series [6], the “substrate for virus dThd kinase (phosphorylation of the analogue)” value is on record as “not phosphorylated; also recorded: did not serve as a substrate”.

What is called pIC50 is the IC50 on a negative log10 scale, so that one unit is a factor of ten. As usually defined, the pKi is the Ki on a negative log10 scale, so that one unit is a factor of ten.

The values above are taken from patent publication US5008252A, “Process for inhibiting herpes simplex virus-specified thymidine kinase” (The University of North Carolina at Chapel Hill, priority 1987, dated 1991).
